Our source for the IC50 and Ki values is ChEMBL document CHEMBL1909046, “DrugMatrix in vitro pharmacology data”.

Structures are written as SMILES.

The target in the first assay is T1, Alpha-2C adrenergic receptor (Homo sapiens, UniProt P18825).
T1 sequence (P18825 whole entry): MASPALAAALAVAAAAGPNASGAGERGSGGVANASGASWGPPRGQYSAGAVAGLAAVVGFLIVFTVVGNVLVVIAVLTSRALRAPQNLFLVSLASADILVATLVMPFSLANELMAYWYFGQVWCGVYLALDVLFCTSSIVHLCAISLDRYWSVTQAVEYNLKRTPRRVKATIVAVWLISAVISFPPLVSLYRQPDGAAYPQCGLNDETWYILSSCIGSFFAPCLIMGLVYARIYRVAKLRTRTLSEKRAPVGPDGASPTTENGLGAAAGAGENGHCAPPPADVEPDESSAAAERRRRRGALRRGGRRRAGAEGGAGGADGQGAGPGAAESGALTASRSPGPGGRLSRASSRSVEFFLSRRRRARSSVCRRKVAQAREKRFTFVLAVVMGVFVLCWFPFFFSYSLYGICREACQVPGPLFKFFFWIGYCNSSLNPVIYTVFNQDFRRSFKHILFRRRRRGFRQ
In words: DRUGMATRIX: Adrenergic Alpha-2C radioligand binding (ligand: [3H] MK-912). Format: cell membranes, Sf9, Membrane. The settings on record: sf9.
As to `Oc1c(I)cc(I)c2cccnc12` [IODOQUINOL], the IC50 result is on record as “Not Active”.
As for `NC(CO)(CO)CO` [TROMETHAMINE], the IC50 result is “Not Active”.
As for `O=[N+]([O-])c1cc([As](=O)(O)O)ccc1O` [ROXARSONE], the IC50 entry is reported as “Not Active” and the Ki result is reported as “Not Active”.

For another assay, the target named is T2, B2 bradykinin receptor (Homo sapiens, UniProt P30411). Note: in other assays of this panel Not Active means under 50% inhibition at 10 µM.
T2 sequence (P30411 whole entry): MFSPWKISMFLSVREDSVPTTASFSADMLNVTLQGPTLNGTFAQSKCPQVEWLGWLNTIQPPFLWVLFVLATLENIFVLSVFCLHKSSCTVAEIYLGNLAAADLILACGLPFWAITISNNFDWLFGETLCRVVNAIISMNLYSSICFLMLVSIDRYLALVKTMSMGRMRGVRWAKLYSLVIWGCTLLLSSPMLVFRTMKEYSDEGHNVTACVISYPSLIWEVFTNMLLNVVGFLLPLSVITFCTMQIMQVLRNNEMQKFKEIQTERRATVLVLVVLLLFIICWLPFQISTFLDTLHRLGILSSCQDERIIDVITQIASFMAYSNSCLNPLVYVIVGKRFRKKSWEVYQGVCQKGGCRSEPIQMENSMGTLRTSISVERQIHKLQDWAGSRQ
Type of assay: cell membranes, Membrane. The settings on record: chem-1.
As to `Oc1c(I)cc(I)c2cccnc12` [IODOQUINOL], the IC50 entry is “Not Active”.
The same measure, in the same setting: in the case of `NC(CO)(CO)CO` [TROMETHAMINE] it was “Not Active”.
For the compound `O=[N+]([O-])c1cc([As](=O)(O)O)ccc1O` [ROXARSONE], the IC50 entry is “Not Active” and the Ki entry is “Not Active”.

The target of another assay is T3, Substance-K receptor (Homo sapiens, UniProt P21452). Note: in other assays of this panel Not Active means under 50% inhibition at 10 µM.
T3 sequence (P21452 whole entry): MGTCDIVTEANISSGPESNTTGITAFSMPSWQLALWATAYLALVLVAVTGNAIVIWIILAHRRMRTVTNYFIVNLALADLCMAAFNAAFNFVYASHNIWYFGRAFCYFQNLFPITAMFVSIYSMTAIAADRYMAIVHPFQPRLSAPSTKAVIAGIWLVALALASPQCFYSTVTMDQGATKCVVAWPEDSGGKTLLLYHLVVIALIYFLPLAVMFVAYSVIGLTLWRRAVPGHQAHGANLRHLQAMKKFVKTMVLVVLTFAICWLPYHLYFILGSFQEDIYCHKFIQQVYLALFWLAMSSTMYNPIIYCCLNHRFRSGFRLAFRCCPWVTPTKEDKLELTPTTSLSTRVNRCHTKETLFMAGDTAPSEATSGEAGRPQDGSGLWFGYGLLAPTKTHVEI
Format: cell membranes, CHO, Membrane. The settings on record: cho.
Take `Oc1c(I)cc(I)c2cccnc12` [IODOQUINOL]: the IC50 result is “Not Active”.
The same measure, in the same setting: for `NC(CO)(CO)CO` [TROMETHAMINE] the value was “Not Active”.
Consider `O=[N+]([O-])c1cc([As](=O)(O)O)ccc1O` [ROXARSONE], for which the IC50 result was “Not Active” and the Ki entry is listed as “Not Active”.

The target in a further assay is Cannabinoid receptor 1 (Homo sapiens, UniProt P21554). Type of assay: cell membranes, Membrane. To be noted: chem-1. Note: in other assays of this panel Not Active means under 50% inhibition at 10 µM.
Sequence of Cannabinoid receptor 1 (P21554 whole entry): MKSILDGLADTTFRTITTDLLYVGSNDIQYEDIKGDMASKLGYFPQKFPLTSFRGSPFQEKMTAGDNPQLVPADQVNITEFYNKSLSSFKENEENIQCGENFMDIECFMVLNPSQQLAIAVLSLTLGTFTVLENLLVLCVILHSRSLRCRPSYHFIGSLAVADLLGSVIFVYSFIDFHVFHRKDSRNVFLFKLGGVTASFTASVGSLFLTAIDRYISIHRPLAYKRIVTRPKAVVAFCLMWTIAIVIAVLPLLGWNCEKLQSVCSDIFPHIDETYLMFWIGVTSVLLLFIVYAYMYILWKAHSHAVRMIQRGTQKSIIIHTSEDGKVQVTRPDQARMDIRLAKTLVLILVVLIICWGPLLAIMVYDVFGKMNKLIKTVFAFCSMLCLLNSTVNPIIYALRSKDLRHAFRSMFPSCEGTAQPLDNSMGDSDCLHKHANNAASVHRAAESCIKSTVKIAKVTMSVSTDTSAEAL
On to `Oc1c(I)cc(I)c2cccnc12` [IODOQUINOL], for which the half-maximal inhibitory concentration (IC50) result was “Not Active”.
Regarding `NC(CO)(CO)CO` [TROMETHAMINE], the IC50 result was “Not Active”.
Take `O=[N+]([O-])c1cc([As](=O)(O)O)ccc1O` [ROXARSONE]: the IC50 entry is given as “Not Active” and the Ki entry is reported as “Not Active”.

For the next assay, the target named is T4, C-X-C chemokine receptor type 1 (Homo sapiens, UniProt P25024). Note: in other assays of this panel Not Active means under 50% inhibition at 10 µM.
T4 sequence (P25024 whole entry): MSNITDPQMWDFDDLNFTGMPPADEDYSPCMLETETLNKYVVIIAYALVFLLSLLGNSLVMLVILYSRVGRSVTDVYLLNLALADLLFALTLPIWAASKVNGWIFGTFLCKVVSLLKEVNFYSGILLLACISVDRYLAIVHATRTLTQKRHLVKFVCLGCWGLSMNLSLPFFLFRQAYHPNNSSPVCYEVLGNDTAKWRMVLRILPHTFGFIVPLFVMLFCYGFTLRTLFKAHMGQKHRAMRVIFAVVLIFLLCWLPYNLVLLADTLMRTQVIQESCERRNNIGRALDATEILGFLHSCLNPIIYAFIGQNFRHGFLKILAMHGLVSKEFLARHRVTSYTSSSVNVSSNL
Details: not given
As to `Oc1c(I)cc(I)c2cccnc12` [IODOQUINOL], the IC50 entry is reported as “Not Active”.
Consider `NC(CO)(CO)CO` [TROMETHAMINE], for which the IC50 entry was “Not Active”.
With `O=[N+]([O-])c1cc([As](=O)(O)O)ccc1O` [ROXARSONE], the IC50 entry is reported as “Not Active” and the Ki result was “Not Active”.

Tested on in the next assay: not listed separately
The experiment in a line: DRUGMATRIX: GABAA, Chloride Channel, TBOB radioligand binding (ligand: [3H] TBOB). Format: cell membranes, Rattus norvegicus, Wistar, Cerebral cortex, Membrane. The settings on record: Not Active = under 50% inhibition at 10 µM.
`Oc1c(I)cc(I)c2cccnc12` [IODOQUINOL]: the IC50 entry is given as “Not Active” and the Ki entry is recorded as “Not Active”.
Take `NC(CO)(CO)CO` [TROMETHAMINE]: the IC50 result is “Not Active” and the Ki result was “Not Active”.
As for `O=[N+]([O-])c1cc([As](=O)(O)O)ccc1O` [ROXARSONE], the 50% inhibitory concentration (IC50) entry is on record as “Not Active” and the Ki result was “Not Active”.

In the next assay the target is Nitric oxide synthase 1 (Rattus norvegicus, UniProt P29476). Format: tissue-based, Cerebellum. Note: in other assays of this panel Not Active means under 50% inhibition at 10 µM.
Sequence of Nitric oxide synthase 1 (P29476 whole entry): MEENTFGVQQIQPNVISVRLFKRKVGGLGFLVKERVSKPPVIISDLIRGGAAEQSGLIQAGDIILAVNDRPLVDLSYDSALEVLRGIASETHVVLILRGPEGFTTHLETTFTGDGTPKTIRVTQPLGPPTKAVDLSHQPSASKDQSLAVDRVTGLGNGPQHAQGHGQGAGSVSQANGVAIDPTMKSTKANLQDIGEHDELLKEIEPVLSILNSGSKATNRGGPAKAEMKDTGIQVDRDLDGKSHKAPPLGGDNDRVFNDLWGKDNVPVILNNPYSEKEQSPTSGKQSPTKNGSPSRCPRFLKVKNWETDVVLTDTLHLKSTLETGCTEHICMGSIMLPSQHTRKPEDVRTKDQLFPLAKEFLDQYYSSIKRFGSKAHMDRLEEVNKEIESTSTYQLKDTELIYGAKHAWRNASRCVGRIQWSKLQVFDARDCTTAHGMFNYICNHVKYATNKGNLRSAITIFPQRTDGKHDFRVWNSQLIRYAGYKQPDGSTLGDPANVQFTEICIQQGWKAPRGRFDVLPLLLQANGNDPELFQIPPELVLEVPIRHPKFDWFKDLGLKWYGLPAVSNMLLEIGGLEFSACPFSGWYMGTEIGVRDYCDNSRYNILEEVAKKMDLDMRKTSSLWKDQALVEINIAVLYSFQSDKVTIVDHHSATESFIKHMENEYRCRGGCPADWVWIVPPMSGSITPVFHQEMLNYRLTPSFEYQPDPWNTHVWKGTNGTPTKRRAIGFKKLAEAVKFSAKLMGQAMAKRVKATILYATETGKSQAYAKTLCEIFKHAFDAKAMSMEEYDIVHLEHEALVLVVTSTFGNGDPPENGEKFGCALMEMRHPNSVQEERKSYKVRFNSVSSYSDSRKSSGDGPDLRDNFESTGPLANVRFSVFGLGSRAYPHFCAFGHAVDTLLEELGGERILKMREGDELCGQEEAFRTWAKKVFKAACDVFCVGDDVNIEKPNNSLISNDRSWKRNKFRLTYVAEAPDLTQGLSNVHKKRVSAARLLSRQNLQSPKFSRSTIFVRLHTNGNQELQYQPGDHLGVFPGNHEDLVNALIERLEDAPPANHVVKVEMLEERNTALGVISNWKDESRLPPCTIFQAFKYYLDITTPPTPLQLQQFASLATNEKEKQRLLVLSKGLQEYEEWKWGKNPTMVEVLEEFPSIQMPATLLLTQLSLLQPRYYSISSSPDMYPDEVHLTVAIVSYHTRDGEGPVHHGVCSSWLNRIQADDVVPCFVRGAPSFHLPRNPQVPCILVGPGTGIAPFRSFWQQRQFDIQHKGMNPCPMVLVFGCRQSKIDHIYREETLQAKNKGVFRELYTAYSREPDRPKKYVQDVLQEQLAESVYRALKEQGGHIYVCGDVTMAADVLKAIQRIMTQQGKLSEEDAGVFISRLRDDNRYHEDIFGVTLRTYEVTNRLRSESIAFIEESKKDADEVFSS
Details: not given
Consider `Oc1c(I)cc(I)c2cccnc12` [IODOQUINOL], for which the IC50 result was “Not Active”.
Same read-out and setting: in the case of `NC(CO)(CO)CO` [TROMETHAMINE] it was “Not Active”.
Turning to `O=[N+]([O-])c1cc([As](=O)(O)O)ccc1O` [ROXARSONE], the IC50 result is listed as “Not Active” and the Ki result is “Not Active”.

Another assay addresses cGMP-specific 3',5'-cyclic phosphodiesterase (Homo sapiens, UniProt O76074). In words: DRUGMATRIX: Phosphodiesterase PDE5 enzyme inhibition (substrate: [3H]cGMP + cGMP). Type of assay: tissue-based, Platelet. The settings on record: platelet; Not Active = under 50% inhibition at 10 µM.
Turning to `Oc1c(I)cc(I)c2cccnc12` [IODOQUINOL], the IC50 entry is given as “Not Active”.
In the case of `NC(CO)(CO)CO` [TROMETHAMINE], the IC50 entry is “Not Active”.
Take `O=[N+]([O-])c1cc([As](=O)(O)O)ccc1O` [ROXARSONE]: the IC50 result is “Not Active” and the Ki result is on record as “Not Active”.

Tested on in another assay: not listed separately
In words: DRUGMATRIX: Platelet-Derived Growth Factor (PDGF) radioligand binding (ligand: [125I] PDGF). Type of assay: cell-based. The settings on record: nih3t3; Not Active = under 50% inhibition at 10 µM.
Take `Oc1c(I)cc(I)c2cccnc12` [IODOQUINOL]: the IC50 result was “Not Active” and the Ki entry is listed as “Not Active”.
In the case of `NC(CO)(CO)CO` [TROMETHAMINE], the IC50 entry is “Not Active” and the Ki result is “Not Active”.
As for `O=[N+]([O-])c1cc([As](=O)(O)O)ccc1O` [ROXARSONE], the IC50 result is recorded as “Not Active” and the Ki entry is “Not Active”.

Tested on in another assay: not listed separately
In words: DRUGMATRIX: Potassium Channel [KATP] radioligand binding (ligand: [3H] Glyburide). Type of assay: cell membranes, Membrane. The settings on record: hit-t15; Not Active = under 50% inhibition at 10 µM.
For `Oc1c(I)cc(I)c2cccnc12` [IODOQUINOL], the IC50 result is “Not Active” and the Ki result was “Not Active”.
As to `NC(CO)(CO)CO` [TROMETHAMINE], the IC50 result is “Not Active” and the Ki result is listed as “Not Active”.
Consider `O=[N+]([O-])c1cc([As](=O)(O)O)ccc1O` [ROXARSONE], for which the IC50 result is “Not Active” and the Ki entry was “Not Active”.

The next assay deals with Mitogen-activated protein kinase 3 (Homo sapiens, UniProt P27361). In words: DRUGMATRIX: Protein Serine/Threonine Kinase, ERK1 enzyme inhibition (substrate: Myelin Basic Protein). To be noted: Not Active = under 50% inhibition at 10 µM. Also on record: species or system Escherichia coli.
Sequence of Mitogen-activated protein kinase 3 (P27361 whole entry): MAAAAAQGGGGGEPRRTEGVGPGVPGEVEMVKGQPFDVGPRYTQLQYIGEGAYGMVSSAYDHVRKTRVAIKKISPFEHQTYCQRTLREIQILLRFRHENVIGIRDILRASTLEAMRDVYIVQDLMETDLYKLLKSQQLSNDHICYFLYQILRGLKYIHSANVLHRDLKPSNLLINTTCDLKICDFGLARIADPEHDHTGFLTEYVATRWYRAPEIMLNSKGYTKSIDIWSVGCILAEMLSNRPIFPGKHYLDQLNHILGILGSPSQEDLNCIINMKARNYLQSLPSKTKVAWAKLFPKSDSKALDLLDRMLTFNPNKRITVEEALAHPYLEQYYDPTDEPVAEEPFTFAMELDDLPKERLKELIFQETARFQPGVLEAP
As to `NC(CO)(CO)CO` [TROMETHAMINE], the IC50 result is listed as “Not Active”.
With `O=[N+]([O-])c1cc([As](=O)(O)O)ccc1O` [ROXARSONE], the IC50 result was “Not Active” and the Ki result is “Not Active”.

Staying with this assay, now noted: Not Active = under 50% inhibition at 10 µM; read-out: IC50.
With `Oc1c(I)cc(I)c2cccnc12` [IODOQUINOL], the half-inhibitory concentration (IC50) is 5.26 µM.

In another assay the target is Protein phosphatase 3 catalytic subunit alpha (Homo sapiens, UniProt Q08209). On the set-up: species or system Escherichia coli.
Details: not given
For `Oc1c(I)cc(I)c2cccnc12` [IODOQUINOL], the IC50 entry is recorded as “Not Active”.
On to `NC(CO)(CO)CO` [TROMETHAMINE], for which the IC50 entry is given as “Not Active”.
On to `O=[N+]([O-])c1cc([As](=O)(O)O)ccc1O` [ROXARSONE], for which the half-inhibitory concentration (IC50) result is on record as “Not Active” and the Ki result was “Not Active”.

A further assay deals with Acetylcholinesterase (Homo sapiens, UniProt P22303). In words: DRUGMATRIX: Acetylcholinesterase enzyme inhibition (substrate: acetylthiocholine). Type of assay: cell-based, HEK293. The settings on record: hek293; Not Active = under 50% inhibition at 10 µM.
Sequence of Acetylcholinesterase (P22303 whole entry): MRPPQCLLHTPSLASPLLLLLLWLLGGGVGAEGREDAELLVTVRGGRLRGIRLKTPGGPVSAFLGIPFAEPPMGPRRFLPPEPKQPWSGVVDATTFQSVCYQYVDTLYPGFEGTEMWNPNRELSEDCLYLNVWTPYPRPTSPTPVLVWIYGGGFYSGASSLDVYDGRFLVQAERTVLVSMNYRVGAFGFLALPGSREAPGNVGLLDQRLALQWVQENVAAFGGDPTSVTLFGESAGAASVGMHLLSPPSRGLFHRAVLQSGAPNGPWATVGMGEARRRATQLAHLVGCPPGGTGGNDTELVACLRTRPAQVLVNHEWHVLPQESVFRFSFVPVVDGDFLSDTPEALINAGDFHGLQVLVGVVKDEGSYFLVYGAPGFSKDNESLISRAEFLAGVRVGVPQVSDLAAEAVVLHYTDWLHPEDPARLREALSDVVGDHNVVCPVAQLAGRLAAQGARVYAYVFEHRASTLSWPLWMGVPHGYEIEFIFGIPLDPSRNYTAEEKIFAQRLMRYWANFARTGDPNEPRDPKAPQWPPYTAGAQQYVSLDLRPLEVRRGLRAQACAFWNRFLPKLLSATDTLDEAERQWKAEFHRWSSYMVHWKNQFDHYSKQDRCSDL
As for `Oc1c(I)cc(I)c2cccnc12` [IODOQUINOL], the IC50 result is “Not Active”.
The same measure, in the same setting: in the case of `NC(CO)(CO)CO` [TROMETHAMINE] it was “Not Active”.
Regarding `O=[N+]([O-])c1cc([As](=O)(O)O)ccc1O` [ROXARSONE], the IC50 entry is recorded as “Not Active” and the Ki entry is “Not Active”.

The target in a further assay is Adenosine receptor A2a (Homo sapiens, UniProt P29274). In words: DRUGMATRIX: Adenosine A2A radioligand binding (ligand: […]). The settings on record: hek293; Not Active = under 50% inhibition at 10 µM. Type of assay: cell membranes, HEK293, Membrane.
Sequence of Adenosine receptor A2a (P29274 whole entry): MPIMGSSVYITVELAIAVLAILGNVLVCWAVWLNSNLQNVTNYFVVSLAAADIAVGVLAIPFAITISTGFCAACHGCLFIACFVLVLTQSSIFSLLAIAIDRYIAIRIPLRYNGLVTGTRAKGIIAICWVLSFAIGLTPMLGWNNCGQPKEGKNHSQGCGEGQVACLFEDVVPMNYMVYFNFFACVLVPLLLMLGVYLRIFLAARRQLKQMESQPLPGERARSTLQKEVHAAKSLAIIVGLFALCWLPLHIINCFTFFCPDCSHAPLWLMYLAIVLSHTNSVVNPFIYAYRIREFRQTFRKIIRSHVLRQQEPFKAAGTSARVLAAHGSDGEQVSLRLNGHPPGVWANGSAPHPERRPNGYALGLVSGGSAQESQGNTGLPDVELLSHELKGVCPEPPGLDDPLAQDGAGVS
As to `Oc1c(I)cc(I)c2cccnc12` [IODOQUINOL], the IC50 result is on record as “Not Active”.
As for `NC(CO)(CO)CO` [TROMETHAMINE], the IC50 result is listed as “Not Active”.
As for `O=[N+]([O-])c1cc([As](=O)(O)O)ccc1O` [ROXARSONE], the IC50 entry was “Not Active” and the Ki entry is given as “Not Active”.
